Measured values as given in PubChem BioAssay (NCI).
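Dose response: 5 concentrations. Exposure: 48 h. Format: 96-well plates. Endpoint: linear interpolation; highest concentration if not reached. Abbreviation: GI50, concentration required for 50% inhibition of growth. TGI: total growth inhibition.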

Assays:
Test in all cases: NCI-60 cell line screen, 48 h
HT29 colon = tested on: HT29 colon
LOX IMVI melanoma = tested on: LOX IMVI melanoma
SF-539 CNS = tested on: SF-539 CNS
SK-MEL-28 melanoma = tested on: SK-MEL-28 melanoma
UACC-257 melanoma = tested on: UACC-257 melanoma
NCI-H23 lung = tested on: NCI-H23 lung
SF-295 CNS = tested on: SF-295 CNS
U251 CNS = tested on: U251 CNS
SW-620 colon = tested on: SW-620 colon
SNB-19 CNS = tested on: SNB-19 CNS

Row | Structure (SMILES) | GI50 (HT29 colon) [µM] | TGI (HT29 colon) [µM] | GI50 (LOX IMVI melanoma) [µM] | TGI (LOX IMVI melanoma) [µM] | GI50 (SF-539 CNS) [µM] | TGI (SF-539 CNS) [µM] | GI50 (SK-MEL-28 melanoma) [µM] | TGI (SK-MEL-28 melanoma) [µM] | GI50 (UACC-257 melanoma) [µM] | TGI (UACC-257 melanoma) [µM] | GI50 (NCI-H23 lung) [µM] | TGI (NCI-H23 lung) [µM] | GI50 (SF-295 CNS) [µM] | TGI (SF-295 CNS) [µM] | GI50 (U251 CNS) [µM] | TGI (U251 CNS) [µM] | GI50 (SW-620 colon) [µM] | TGI (SW-620 colon) [µM] | GI50 (SNB-19 CNS) [µM] | TGI (SNB-19 CNS) [µM]
1 | Cn1ncc(C#N)c1-c1ccc2c(c1)CN([C@H](CN)Cc1cccc(F)c1)C2=O | 3.25 | > 100 | 20.3 | > 100 | 0.193 | 8.74 | 3.72 | > 83.2 | 5.99 | 66.6 | 20 | > 100 | 0.503 | 24.9 | 0.693 | > 86.4 | 23.3 | > 100 | 1.15 | > 55.3
2 | O=S1(=O)c2ccccc2N(c2ccccc2)c2nnnn21 |  | 67.8 |  | 32.6 |  | 35.7 |  | 92.9 |  | > 100 |  | 59.6 |  | > 100 |  | > 100 |  | 53.6 |  | 88.5
3 | CC[C@@H](C)/C=C(C)/C=C/C(=O)c1c(O)c(-c2ccc(OC(=O)[C@@]34CC[C@@](C)(C(=O)O3)C4(C)C)cc2)cn(O)c1=O | 21.2 | > 50 | 0.961 | > 50 | 1.3 | 6.1 | 2.51 | > 50 | 1.8 | 36 | 2.41 | > 50 | 1.99 | 26.9 | 1.64 | > 50 | 2.43 | > 50 | 2.66 | > 50
4 | O=C(/C=C/c1ccc(Cl)c(Cl)c1)c1ccccc1Cl |  | 12.8 |  | 27.7 |  | 12.2 |  | 22.5 |  | 27.7 |  | 26.9 |  | 26.9 |  | 10.3 |  | 9.16 |  | 25.1
5 | CCN1CCN(c2nc(C)cc(NCc3cc(Nc4ccnc5cc(Cl)ccc45)ccc3F)n2)CC1 | 1.96 | 6.17 | 1.02 | 2.34 | 1.76 | 3.37 | 1.7 | 3.37 | 1.89 | 3.79 | 2.62 | 13 | 1.05 | 2.61 | 1.95 | 5.44 | 1.78 | 4.81 | 2.91 | 13.1
6 | CC(=O)OC1CCC2OOC1O2 (stereo not given) |  | > 100 |  | > 100 |  | > 100 |  | > 100 |  | > 100 |  | > 100 |  | > 100 |  | > 100 |  | > 100 |  | > 100
7 | Cc1ccc(C[As+](c2ccccc2)(c2ccccc2)c2ccccc2)cc1 | 0.313 | 11.5 | 1.41 | 6.85 | 1.71 | 28.3 | 0.927 | 18.5 | 0.279 | 1.75 | 1.02 | 9.36 | 0.753 | 4.41 | 0.58 | 15.9 | 0.99 | > 38.1 | 0.978 | > 76.8
